According to patent publication US6737407B1, “Treatment of obesity” (Metabolic Pharmaceuticals, Ltd., priority 1997, dated 2004):
Where no end group is shown, it is not given here.

Experiments:
[1] = system: adipose tissues of the C57BL/6J (ob/ob) mice; assay: Ex vivo lipogenesis in adipose tissues of treated ob/ob mice ([C14]-glucose incorporated into lipid); design: species or system mouse
Description: FIGS. 5A & 5B depict the ex vivo effect on lipogenesis in adipose tissues of the C57BL/6J (ob/ob) male mice (5A) and female mice (5B) after 18-day treatment with hGH 177-191. […] The differences between the hGH 177-191 treated and saline control groups were statistically significant.
The procedure for the isolation and measurement of intact epididymal fat pads was established in previous studies of epididymal growth of GH-deficient (lit/lit) mice. In the present study, white adipose tissues, either whole epididymal or parametrical fat pads, were excised with the identical techniques as previously described^22 from the mice immediately after sacrifice. The tissues were washed in cold physiological saline, blotted and weighed. For ex vivo lipogenic assays, the portions of adipose tissues without blood vessels were used.
The rate of the incorporation of exogenous [C^14]-glucose into total lipid in adipose tissue was measured as the index of anti-lipogenic activity of hGH 177-191.
Adipose tissues were sliced into segments of approximately 200 mg each and then placed in Krebs-Ringer bicarbonate (KRB) buffer (pH 7.4) containing 2% defatted BSA, and glucose (0.1 mg/ml) and gassed with 95% O2-5% CO2 at 37° C. […] The [C^14] radioactivity was measured with a liquid scintillation counter. The rates of total lipid synthesis were expressed as μmol [C^14]-glucose incorporated into lipid/g tissue/hr.

[2] = system: adipose tissues from male Zucker fatty (fa/fa) rats; assay: In vitro glycerol release during lipolysis in isolated adipose tissue; type: cell-based, rat; conditions: adipose tissues isolated from obese animals
Procedure: (§1) Adipose tissues were removed from animals and sliced into segments of approximately 200 mg each. Then the tissues were pre-incubated in 25 ml vials containing 2 ml of Krebs-Ringerbicarbonate (KRB) buffer, 4% defatted BSA and 5.5 mM glucose under an atmosphere of carbogen (95%O2/ 5%CO2) at 37° C. for 1 hour. Tissues were then transferred to another vials with fresh medium and the incubation was initiated by adding hGH 177-191 peptide or analogues into the vials. The mixtures were then incubated at 37° C. for 90 minutes. After incubation, the tissues wee removed and aliquots (200 μl) of samples withdrawn from the medium were assayed for the contents of glycerol or free fatty acid (FFA) either by the enzyme assay (glycerol kinase) or calorimetric (copper-dye) spectrometry. The NADH or color produced was then monitored by the absorption at 340 nm and 610 nm, respectively.

[3] = system: C57BL/6J (ob/ob) mice; assay: Plasma triglyceride and total cholesterol in obese mice after 18-day chronic treatment; type: in vivo, mouse; conditions: for Plasma total cholesterol / Plasma triglyceride: after 18-day treatment
Procedure: The animals were anaesthetised with sodium pentobarbitone (80 mg/kg body weight) 12 hr after the last dose of hGH 177-191. Blood samples were collected from the tail vein of anaesthetised animals 45 mins after the administration of anaesthetic. After being centrifuged at 2000×g for 5 minutes, plasma was removed from the samples and used for metabolite assays. Triglyceride and total cholesterol in plasma were measured by enzyme-spectrophotometric methods. The reagents are based on either a modified glycerol phosphate oxidase (GPO)-Trinder's type colour reaction^24 or a cholesterol oxidase-4-aminoantipyrine method^25. All assays were performed with the CentrifiChem System 400 (Union Carbide) containing an automated pipetter, a centrifugal analyser and a recording spectrophotometer. Seronorm Lipid (Nycomed Pharma Co., Oslo, Norway) was used as the calibrator.

[4] = system: Human Subcutaneous adipose Tissue; assay: Lipolytic activity in human subcutaneous adipose tissue; type: cell-based; conditions: 0.5 μM peptide
Procedure: as §1
Tables 6 and 7 show the in vitro antilipogenic and lipolytic activity of hGH 177-191 and two representative analogues (Ref Nos. 9604 and 9605) on human adipose tissue.

[5] = system: Zucker fatty (fa/fa) rats; assay: Chronic treatment of Zucker fatty rats: body weight gain and food consumption; type: in vivo, rat; conditions: throughout the treatment period
Procedure: Animals were given a daily intraperitoneal injection of either saline or the peptide (500 μg/kg body weight) (3A) or implanted intradermally with a slow-release tablet (500 μg/day/kg body weight) in the lower quadrant of the abdomen of the animals. The control group was implanted with a placebo tablet in the same manner. Each point represents the mean±SEM of 6 animals.
The treatment for the four groups of animals was as described in FIGS. 3A & 3B. Each point represents the mean±SEM of 6 animals.
The animals of the same age and same sex were randomly divided into two groups, housed 6 per cage and maintained on a normal 12-hr light/dark cycle at a constant room temperature of 25° C. in the animal house of the Department of Biochemistry and—Molecular Biology, Monash University, Clayton, Australia. Animals were fed ad libitum on pre-determined quantity of animal pellets (Clark King, Melboume, Australia) and allowed free access to water at all times. […] The body weight and food intake were monitored for the periods of time as indicated.
Cumulative weight gain and food consumption were determined at 3-day intervals by the measurements of body weight and uneaten food remaining in the cages. […]

Question: How did the “tissue lipogenic activity ([C14]-glucose incorporated into lipid)” value ([1]; female ob/ob mice after 18-day treatment) turn out when “LRIVQCRSVEGSCGF (cysteine pairing not given here) [Ref No. 9401]” was run?
Answer: The value was 2.99±0.21 pmol/mg tissue/min.

Question: What about the “tissue lipogenic activity ([C14]-glucose incorporated into lipid)” value ([1]; male ob/ob mice after 18-day treatment) of the same sequence?
Answer: The value was 2.33±0.21 pmol/mg tissue/min.

Question: What about the “release of glycerol (in words)” value [2] of the same sequence?
Answer: The value was “enhanced”.

Question: And the “plasma levels of triglyceride versus control (in words)” value ([3]; both sexes, ob/ob mice)?
Answer: The value was “did not influence”.

Question: What about the “plasma levels of cholesterol versus control (in words)” value ([3]; female ob/ob mice) of the same sequence?
Answer: Its value is “only slightly lower”.

Question: What about the Plasma total cholesterol ([3]; female ob/ob mice) of the same sequence?
Answer: The Plasma total cholesterol was 2.84 ± 0.29 mmol/L.

Question: And the Plasma triglyceride ([3]; female ob/ob mice)?
Answer: Its Plasma triglyceride is 0.38 ± 0.11 mmol/L.

Question: What about the Plasma triglyceride ([3]; male ob/ob mice) of the same sequence?
Answer: Its Plasma triglyceride is 0.58 ± 0.16 mmol/L.

Question: What about the Plasma total cholesterol ([3]; male ob/ob mice, listed as hGH 177-191) of the same sequence?
Answer: The Plasma total cholesterol was 3.52 ± 0.39 mmol/L.

Question: And the Glycerol released [4]?
Answer: Its Glycerol released is 1000 ± 80 nmol/mg tissue/hour.

Question: What about the “food consumption (in words)” value [5] of the same sequence?
Answer: The value was “unchanged”.
